US5928915A, “CHO cell sialidase by recombinant DNA technology” (Genentech, Inc., priority 1997, dated 1999)

Legend:
CHO cell sialidase [1] = molecular target: T1, CHO cell sialidase (Cricetulus griseus, UniProt Q64393); assay: Inhibition of CHO cell sialidase (competitive inhibitor study); assay type: biochemical, Chinese hamster
T1 construct: The sialidase described was purified from the cell culture fluid of a single production cell line (CHO 14.16); endogenous in cells; host or cells: CHO 14.16 cells (purified from the cell culture fluid)
T1 sequence (Q64393 whole entry): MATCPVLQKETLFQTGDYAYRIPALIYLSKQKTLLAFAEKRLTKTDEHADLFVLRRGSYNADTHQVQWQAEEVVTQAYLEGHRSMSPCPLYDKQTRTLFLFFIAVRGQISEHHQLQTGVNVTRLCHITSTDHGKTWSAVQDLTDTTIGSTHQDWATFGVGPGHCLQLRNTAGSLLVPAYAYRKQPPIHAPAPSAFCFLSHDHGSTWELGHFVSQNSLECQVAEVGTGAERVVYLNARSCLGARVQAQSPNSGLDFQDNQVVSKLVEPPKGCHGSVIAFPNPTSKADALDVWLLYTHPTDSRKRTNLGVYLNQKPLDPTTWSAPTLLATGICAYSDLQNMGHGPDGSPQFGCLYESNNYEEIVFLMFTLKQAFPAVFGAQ

[2] = system: lysosomal sialidase (fibroblasts); conditions: cited from earlier work
[3] = system: plasma membrane sialidase (adenovirus transformed kidney cells); conditions: cited from earlier work
[4] = molecular target: cytosolic sialidase from rat muscle; conditions: cytosol, previously reported data, unit from footnote c; cited from earlier work
CHO cell sialidase [5] = molecular target: T1, CHO cell sialidase; assay: Sialidase kinetic constants with soluble sialylglycoconjugate substrates; assay type: biochemical, Chinese hamster; conditions: for substrate cleavage in words: purified enzyme
Experimental: Fluorescent sialidase assays: Standard assay conditions for monitoring the enzyme activity during purification using the fluorescent substrate analog are: 1.3 mM 4-MUNeu5Ac, 50 mM phosphate buffer, pH 6.8, 0.3 mg bovine serum albumin and varying amounts of enzyme in a total volume of 30 μl. After addition of enzyme the samples are incubated at 37° C. in a shaking water bath for 5 minutes. The reaction is terminated and the fluorescence of the liberated umbelliferone is enhanced by the addition of 2 ml of 80 mM glycine-carbonate buffer, pH 9.7. Quantification of the product is made by measuring the fluorescence of the samples with excitation at 365 nm and emission at 450 nm using a standard of 4-methyl umbelliferone. A unit of enzyme activity is defined as a μmol/min of sialic acid liberated.
(§1) Sialidase assays with natural substrates: When natural substrates are tested with the purified enzyme, the amount of released sialic acid is measured using the thiobarbituric acid assay as modified by Uchida [Uchida et al. J. Biochem., 82:1425 (1977)] using sialic acid as standard. The amount of sialic acid in control samples, which include a complete assay mixture incubated without added enzyme is subtracted from each determination. All samples are cleared by centrifugation (1,000×G, 10 min) prior to determining the absorbance at 540 nm.
Enzyme kinetic parameters: Assay conditions (time and added enzyme) are modified for each substrate so that initial reaction rates are measured. Kinetic parameters are obtained from double reciprocal plots of the substrate saturation curves [Segel, I. H. John Wiley, New York, Enzyme Kinetics, 18 (1975)].
Substrate specificity: Several classes of sialyl glycoconjugates were tested as substrates, TABLE II. […] Transferrin is isolated from human serum and contains only 2,6 linked sialic acid residues [Baenziger, J. U. The Plasma Proteins 2nd Ed. (Putnam, F. W., ed.) 272-398, Academic Press, New York (1984)].

CHO cell sialidase [6] = molecular target: T1, CHO cell sialidase; assay: Sialidase activity toward gangliosides and colominic acid (thiobarbiturate assay); assay type: biochemical, Chinese hamster; parameters: key to Relative Activity: NR: no reaction products detected; conditions: for Relative Activity: substrate 4 mM, initial rate, pH 6.0, cholic acid (0.05%) with lipid substrates, α-2,3 sialyllactose = 100; for ganglioside hydrolysis in words: cholic acid as solubilizing agent
Experimental: as §1
Some gangliosides are degraded by the sialidase (TABLE III), although these substrates require the presence of cholic acid as a solubilizing agent in the assay for optimal activity.

Row | Compound | Relative Activity (CHO cell sialidase [6]) | ganglioside hydrolysis in words (CHO cell sialidase [6]) | substrate cleavage in words (CHO cell sialidase [5]) | also measured
1 | CC(=O)N[C@H]1[C@H]([C@H](O)[C@H](O)CSc2ccc(N=[N+]=[N-])cc2[N+](=O)[O-])OC(C(=O)O)=C[C@@H]1O [9-PANP-Neu5Ac2en, 9-S-(4'-azido-2'-nitro-phenyl)-5-acetamido-2,6 anhydro-9-thio-2,5,9-trideoxy-D-glycero-D-galacto-non-2-enonic acid] |  |  |  | inhibition in words (CHO cell sialidase [1]): weakly inhibited
2 | CC(=O)N[C@H]1[C@H]([C@H](O)[C@H](O)CN=[N+]=[N-])OC(C(=O)O)=C[C@@H]1O [9-azido-Neu5Ac2en, 5-acetamido-2,6-anhydro-9-azido-3,5,9-trideoxy-D-glycero-D-galacto-non-2-enonic acid] |  |  |  | inhibition in words [2]: strongly inhibited; Ki ([3]; adenovirus transformed kidney cells, plasma membrane, previously reported data, unit from footnote c): 10 µM; inhibition in words ([3]; plasma membrane sialidase): strongly inhibited; Ki [4]: 50 µM; inhibition in words (CHO cell sialidase [1]): moderately inhibited
3 | CC(=O)N[C@H]1[C@H]([C@H](O)[C@H](O)CO)O[C@@](O[C@H](CO)[C@@H](O)[C@@H]2OC(O)(C(=O)O)C[C@H](O)[C@H]2NC(C)=O)(C(=O)O)C[C@@H]1O (some centres unmarked) [Sialic acid dimer] |  |  | substrates for the enzyme | 
4 | CC(=O)N[C@H]1[C@H]([C@H](O)[C@H](O)CO)O[C@@](O[C@H]2[C@@H](O)[C@@H](CO)O[C@@H](O[C@H]3[C@H](O)[C@@H](O)C(O)O[C@@H]3CO)[C@@H]2O)(C(=O)O)C[C@@H]1O (some centres unmarked) [sialyl lactose] |  |  | readily cleaved | 
5 | CC(=O)N[C@H]1[C@H]([C@H](O)[C@H](O)CO)O[C@@](O[C@H]2[C@@H](O)[C@@H](CO)O[C@@H](O[C@H]3[C@H](O)[C@@H](O)C(O)O[C@@H]3CO)[C@@H]2O)(C(=O)O)C[C@@H]1O (stereo partly drawn) [α-2,3 Sialyllactose] | 100% |  |  | 
6 | Colominic Acid | 4% |  | hydrolyzed but at substantially reduced rates | 
7 | Transferrin: isolated from human serum and contains only 2,6 linked sialic acid residues |  |  | cleaved much more slowly than that bound to recombinant human deoxyribonuclease I | Vmax (CHO cell sialidase [5]; apparent, standard assay conditions, average of duplicates, relative error about 10%): 2 µmol/min/mg; Km values compared (in words) (CHO cell sialidase [5]; transferrin versus deoxyribonuclease I): nearly identical

Continued, in another order:

Row | Relative Activity (CHO cell sialidase [6]) | ganglioside hydrolysis in words (CHO cell sialidase [6]) | Compound | substrate cleavage in words (CHO cell sialidase [5]) | also measured
8 | NR | not substrates | II^3 (NeuAc)2 -GgOse4 Cer [GD1b] |  | 
9 | NR | not substrates | II^3 NeuAc-GgOse3 Cer [GM2] |  | 
10 | NR | not substrates | II^3 NeuAc-GgOse4 Cer [GM1] |  | 
11 | 29% | hydrolyzed at comparable rates | II^3 NeuAc-LacCer [GM3] |  | 
12 | 23% | hydrolyzed at comparable rates | IV^3 NeuAc, II^3 (NeuAc)2 -GgOse4 Cer [GT1b] |  | 
13 | 21% | hydrolyzed at comparable rates | IV^3 NeuAc, II^3 NeuAc-GgOse4 Cer [GD1a] |  | 
